Experimental data as given in publication PMC12119673, “Apoptotic cell death induced by copper (II), manganese (II) and silver (I) complexes containing bridging dicarboxylate and 1,10-phenanthroline ligands: one of the multi-modes of anticancer activity?” (Biometals, 2025).

Test system: MCF-12A cells
Assay: Detection of reactive oxygen species with H2DCFDA
Format: cell-based, human
Details: 0.78 μM to 50 μM, over a 6-h period, fold-change compared to the negative control
Procedure: The production of reactive oxygen species (ROS) was detected in MCF-7 and MCF12A cells using the cell-permeant dye 2',7'- dichlorodihydrofluorescein diacetate (H2DCFDA) (Thermo Fisher Scientific, Ireland) (Cat# D399). Cells were seeded at a density of 1 × 10^4 in 96 well plates and incubated for 24 h. Post-incubation, the media was removed, and cells were washed with PBS. A 10 μM DCFH-DA working solution was prepared using cell culture media, and the cells were incubated with 100 μl of the solution in the dark for 30 min. […] Fluorescent measurements were recorded at 15 min, 30 min, 1 h, and subsequently every hour up to 6 h using a Varioskan Lux™ multimode microplate reader (Thermo Fisher Scientific, Ireland) at an excitation wavelength of 495 nm and emission of 527 nm. The assay was repeated three independent times, using three replicates per plate.
The cells were treated with a concentration range from 0.78 μM to 50 μM, and the response was measured over a 6-h period. This facilitated the evaluation of whether there was a time and/or concentration dependent response from the cells. Hydrogen peroxide (H2O2) was used as a positive control. ROS production is presented as fold-change compared to the negative control.

{[Mn2(oda)3(phen)4]^2−[Mn2(oda)(phen)4 (H2O)2]^2+} [Complex 7]
ROS production: markedly elevated production of ROS
